Measurements as given in patent US11370798B2 (Vertex Pharmaceuticals Incorporated, priority 2012, dated 2022).

Test system: HCT116 colorectal cancer cells
Test: Cisplatin sensitization assay (96 h cell viability MTS);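 also: Test-compound concentration that lowers the Cisplatin IC50 by a set fold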
Type: cell-based
Settings: compound and Cisplatin added simultaneously, Cisplatin sensitization value
In short: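 Viability read by MTS (1 h at 37° C) after 96 h co-exposure at 37° C, 5% CO2. Test compound and cisplatin were dosed simultaneously in a full concentration matrix, each 2-fold serially diluted from 10 μM final; sensitization values binned in μM.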

Row | SMILES | Cisplatin Sensitization Assay
1 | Cc1ccc(-c2ccncc2NC(=O)c2c(N)nn3cc(F)cnc23)cn1 [I-C-22, 2-amino-6-fluoro-N-(6-methyl-[3,4′-bipyridin]-3′-yl)pyrazolo[1,5-a]pyrimidine-3-carboxamide] | ++ (Cisplatin sensitization value>0.02 μM but <0.2 μM)
2 | CN1CCN(c2c(F)cncc2NC(=O)c2c(N)nn3cc(C(C)(C)C#N)cnc23)CC1 [I-N-138, 2-amino-6-(2-cyanopropan-2-yl)-N-(5-fluoro-4-(4-methylpiperazin-1-yl)pyridin-3-yl)pyrazolo[1,5-a]pyrimidine-3-carboxamide] | ++ (Cisplatin sensitization value>0.02 μM but <0.2 μM)
3 | Nc1nn2cc(F)cnc2c1C(=O)Nc1cnccc1N1CCC(C(=O)N2CCCC2)CC1 [I-G-83, 2-amino-6-fluoro-N-(4-(4-(pyrrolidine-1-carbonyl)piperidin-1-yl)pyridin-3-yl)pyrazolo[1,5-a]pyrimidine-3-carboxamide] | +++ (Cisplatin sensitization value of <0.02 μM)
4 | Cc1cnccc1-c1ccncc1NC(=O)c1c(N)nn2cc(F)cnc12 [I-C-29, 2-amino-6-fluoro-N-(3′-methyl-[4,4′-bipyridin]-3-yl)pyrazolo[1,5-a]pyrimidine-3-carboxamide] | +++ (Cisplatin sensitization value of <0.02 μM)
5 | N#CCc1cnc2c(C(=O)Nc3cnccc3N3CCOC(CN)C3)c(N)nn2c1 (centres unmarked) [I-N-90, 2-amino-N-(4-(2-(aminomethyl)morpholino)pyridin-3-yl)-6-(cyanomethyl)pyrazolo[1,5-a]pyrimidine-3-carboxamide] | + (Cisplatin sensitization value>0.2 μM but <5 μM)
6 | Cc1ccnn1-c1ccncc1NC(=O)c1c(N)nn2cc(F)cnc12 [I-N-223, 2-amino-6-fluoro-N-(4-(5-methyl-1H-pyrazol-1-yl)pyridin-3-yl)pyrazolo[1,5-a]pyrimidine-3-carboxamide] | ++ (Cisplatin sensitization value>0.02 μM but <0.2 μM)
7 | Nc1nn2cc(F)cnc2c1C(=O)Nc1cncc(F)c1N1CCN(C(=O)C2CCOC2)CC1 (centres unmarked) [I-N-274, 2-amino-6-fluoro-N-(5-fluoro-4-(4-(tetrahydrofuran-3-carbonyl)piperazin-1-yl)pyridin-3-yl)pyrazolo[1,5-a]pyrimidine-3-carboxamide] | +++ (Cisplatin sensitization value of <0.02 μM)
8 | Nc1nn2cc(F)cnc2c1C(=O)Nc1cnccc1-c1ccccn1 [I-C-60, N-([2,4′-bipyridin]-3′-yl)-2-amino-6-fluoropyrazolo[1,5-a]pyrimidine-3-carboxamide] | ++ (Cisplatin sensitization value>0.02 μM but <0.2 μM)
9 | Nc1nn2cc(F)cnc2c1C(=O)Nc1cnccc1N1CCN2CCOC[C@H]2C1 [I-N-116, (R)-2-amino-6-fluoro-N-(4-(hexahydropyrazino[2,1-c][1,4]oxazin-8(1H)-yl)pyridin-3-yl)pyrazolo[1,5-a]pyrimidine-3-carboxamide] | ++ (Cisplatin sensitization value>0.02 μM but <0.2 μM)
10 | Cc1ccn(-c2ccncc2NC(=O)c2c(N)nn3cc(F)cnc23)n1 [I-N-225, 2-amino-6-fluoro-N-(4-(3-methyl-1H-pyrazol-1-yl)pyridin-3-yl)pyrazolo[1,5-a]pyrimidine-3-carboxamide] | ++ (Cisplatin sensitization value>0.02 μM but <0.2 μM)
11 | Cc1nc(C(=O)N2CCN(C)CC2)ccc1-c1ccncc1NC(=O)c1c(N)nn2cc(F)cnc12 [I-C-39, 2-amino-6-fluoro-N-(2-methyl-6-(4-methylpiperazine-1-carbonyl)-[3,4′-bipyridin]-3′-yl)pyrazolo[1,5-a]pyrimidine-3-carboxamide] | +++ (Cisplatin sensitization value of <0.02 μM)
12 | CN1CCCN(c2ccncc2NC(=O)c2c(N)nn3cc(Cl)cnc23)CC1 [I-N-43, 2-amino-6-chloro-N-(4-(4-methyl-1,4-diazepan-1-yl)pyridin-3-yl)pyrazolo[1,5-a]pyrimidine-3-carboxamide] | ++ (Cisplatin sensitization value>0.02 μM but <0.2 μM)
13 | CC(C)Oc1ccncc1NC(=O)c1c(N)nn2cc(CC#N)cnc12 [I-O-35, 2-amino-6-(cyanomethyl)-N-(4-isopropoxypyridin-3-yl)pyrazolo[1,5-a]pyrimidine-3-carboxamide] | +++ (Cisplatin sensitization value of <0.02 μM)
14 | Nc1nn2cc(Cl)cnc2c1C(=O)Nc1cnccc1N1CCC(N2CCC3(COC3)C2)CC1 [I-N-99, N-(4-(4-(2-oxa-6-azaspiro[3.4]octan-6-yl)piperidin-1-yl)pyridin-3-yl)-2-amino-6-chloropyrazolo[1,5-a]pyrimidine-3-carboxamide] | +++ (Cisplatin sensitization value of <0.02 μM)
15 | Nc1nn2cc(F)cnc2c1C(=O)Nc1cncc(F)c1N1CCC(C(=O)N2CCN3CCC2CC3)CC1 [I-G-7, N-(4-(4-(1,4-diazabicyclo[3.2.2]nonane-4-carbonyl)piperidin-1-yl)-5-fluoropyridin-3-yl)-2-amino-6-fluoropyrazolo[1,5-a]pyrimidine-3-carboxamide] | +++ (Cisplatin sensitization value of <0.02 μM)
16 | Nc1nn2cc(F)cnc2c1C(=O)Nc1cnccc1N1CCC(C(=O)N2CC3(CCO3)C2)CC1 [I-G-90, N-(4-(4-(1-oxa-6-azaspiro[3.3]heptane-6-carbonyl)piperidin-1-yl)pyridin-3-yl)-2-amino-6-fluoropyrazolo[1,5-a]pyrimidine-3-carboxamide] | +++ (Cisplatin sensitization value of <0.02 μM)
17 | CC(C)N1CCC(C(=O)N2CCN(c3c(F)cncc3NC(=O)c3c(N)nn4cc(F)cnc34)CC2)C1 (centres unmarked) [I-N-206, 2-amino-6-fluoro-N-(5-fluoro-4-(4-(1-isopropylpyrrolidine-3-carbonyl)piperazin-1-yl)pyridin-3-yl)pyrazolo[1,5-a]pyrimidine-3-carboxamide] | +++ (Cisplatin sensitization value of <0.02 μM)
18 | CCN1CCN(c2ccncc2NC(=O)c2c(N)nn3cc(F)cnc23)CC1 [I-N-17, 2-amino-N-(4-(4-ethylpiperazin-1-yl)pyridin-3-yl)-6-fluoropyrazolo[1,5-a]pyrimidine-3-carboxamide] | +++ (Cisplatin sensitization value of <0.02 μM)
19 | Nc1nn2cc(Cl)cnc2c1C(=O)Nc1cnccc1OCCO [I-O-66, 2-amino-6-chloro-N-(4-(2-hydroxyethoxy)pyridin-3-yl)pyrazolo[1,5-a]pyrimidine-3-carboxamide] | + (Cisplatin sensitization value>0.2 μM but <5 μM)
20 | CS(=O)(=O)C1CCN(c2ccncc2NC(=O)c2c(N)nn3cc(F)cnc23)CC1 [I-N-190, 2-amino-6-fluoro-N-(4-(4-(methylsulfonyl)piperidin-1-yl)pyridin-3-yl)pyrazolo[1,5-a]pyrimidine-3-carboxamide] | +++ (Cisplatin sensitization value of <0.02 μM)
21 | Nc1nn2cc(F)cnc2c1C(=O)Nc1cncc(F)c1N1CCC(C(=O)N2CCOCC2)CC1 [I-G-36, 2-amino-6-fluoro-N-(5-fluoro-4-(4-(morpholine-4-carbonyl)piperidin-1-yl)pyridin-3-yl)pyrazolo[1,5-a]pyrimidine-3-carboxamide] | +++ (Cisplatin sensitization value of <0.02 μM)
22 | Nc1nn2cc(F)cnc2c1C(=O)Nc1cnccc1O[C@H]1Cc2nccn2C1 [I-O-16, (S)-2-amino-N-(4-((6,7-dihydro-5H-pyrrolo[1,2-a]imidazol-6-yl)oxy)pyridin-3-yl)-6-fluoropyrazolo[1,5-a]pyrimidine-3-carboxamide] | +++ (Cisplatin sensitization value of <0.02 μM)
23 | N#CCc1cnc2c(C(=O)Nc3cnccc3OC3CCOCC3)c(N)nn2c1 [I-O-30, 2-amino-6-(cyanomethyl)-N-(4-((tetrahydro-2H-pyran-4-yl)oxy)pyridin-3-yl)pyrazolo[1,5-a]pyrimidine-3-carboxamide] | +++ (Cisplatin sensitization value of <0.02 μM)
24 | CN1CCN(C(=O)C2CCN(c3c(F)cncc3NC(=O)c3c(N)nn4cc(F)cnc34)CC2)C2CC21 (centres unmarked) [I-G-65, 2-amino-6-fluoro-N-(5-fluoro-4-(4-(5-methyl-2,5-diazabicyclo[4.1.0]heptane-2-carbonyl)piperidin-1-yl)pyridin-3-yl)pyrazolo[1,5-a]pyrimidine-3-carboxamide] | +++ (Cisplatin sensitization value of <0.02 μM)
25 | CN1CCN(S(=O)(=O)C2CCN(c3c(F)cncc3NC(=O)c3c(N)nn4cc(F)cnc34)CC2)CC1 [I-N-166, 2-amino-6-fluoro-N-(5-fluoro-4-(4-((4-methylpiperazin-1-yl)sulfonyl)piperidin-1-yl)pyridin-3-yl)pyrazolo[1,5-a]pyrimidine-3-carboxamide] | +++ (Cisplatin sensitization value of <0.02 μM)
26 | Nc1nn2cc(F)cnc2c1C(=O)Nc1cncc(F)c1N1CCC(C(=O)N2CC(F)(F)C2)CC1 [I-G-73, 2-amino-N-(4-(4-(3,3-difluoroazetidine-1-carbonyl)piperidin-1-yl)-5-fluoropyridin-3-yl)-6-fluoropyrazolo[1,5-a]pyrimidine-3-carboxamide] | +++ (Cisplatin sensitization value of <0.02 μM)
27 | CN1CCC(c2ccncc2NC(=O)c2c(N)nn3cc(F)cnc23)CC1 [I-C-1, 2-amino-6-fluoro-N-(4-(1-methylpiperidin-4-yl)pyridin-3-yl)pyrazolo[1,5-a]pyrimidine-3-carboxamide] | ++ (Cisplatin sensitization value>0.02 μM but <0.2 μM)
28 | CN1CCN(c2cc(N)ncc2NC(=O)c2c(N)nn3cc(Cl)cnc23)CC1 [I-N-50, 2-amino-N-(6-amino-4-(4-methylpiperazin-1-yl)pyridin-3-yl)-6-chloropyrazolo[1,5-a]pyrimidine-3-carboxamide] | + (Cisplatin sensitization value>0.2 μM but <5 μM)
29 | Nc1nn2cc(F)cnc2c1C(=O)Nc1cnccc1N1CCC(N2CCCC2=O)CC1 [I-N-230, 2-amino-6-fluoro-N-(4-(4-(2-oxopyrrolidin-1-yl)piperidin-1-yl)pyridin-3-yl)pyrazolo[1,5-a]pyrimidine-3-carboxamide] | +++ (Cisplatin sensitization value of <0.02 μM)
